Measurements published in the NIST ThermoML archive (doi:10.1021/acs.jced.5b00474).

Assay: xn = mol fraction of the nth substance listed
Details: 101 kPa, Liquid; for mass density: Vibrating tube method; for speed of sound: Frequency=3 MHz, Sing-around technique in a fixed-path interferometer

CN1CCCC1=O [N-methylpyrrolidone] + CC#N
Details | mass density [kg/m3] | speed of sound [m/s]
293.15 K, x1 = 0.0997 | 826.597 | –
293.15 K, x1 = 0.2019 | 865.011 | –
293.15 K, x1 = 0.2953 | 895.168 | –
293.15 K, x1 = 0.4033 | 925.343 | –
293.15 K, x1 = 0.4999 | 948.634 | –
293.15 K, x1 = 0.5645 | 962.588 | –
293.15 K, x1 = 0.6971 | 987.869 | –
293.15 K, x1 = 0.7909 | 1002.68 | –
293.15 K, x1 = 0.8906 | 1018.29 | –
293.15 K, x1 = 1 | 1032.25 | –
298.15 K, x1 = 0.0997 | 821.365 | 1311.6
298.15 K, x1 = 0.2019 | 859.919 | 1345.4
298.15 K, x1 = 0.2953 | 890.188 | 1375
298.15 K, x1 = 0.4033 | 920.48 | 1407.6
298.15 K, x1 = 0.4999 | 943.847 | 1434.4
298.15 K, x1 = 0.5645 | 957.857 | 1450.8
298.15 K, x1 = 0.6971 | 983.231 | 1483.7
298.15 K, x1 = 0.7909 | 998.089 | 1503.3
298.15 K, x1 = 0.8906 | 1013.76 | 1524.8
298.15 K, x1 = 1 | 1027.79 | 1544.6
303.15 K, x1 = 0.0997 | 816.101 | 1291.8
303.15 K, x1 = 0.2019 | 854.802 | 1325.7
303.15 K, x1 = 0.2953 | 885.193 | 1355.4
303.15 K, x1 = 0.4033 | 915.6 | 1387.9
303.15 K, x1 = 0.4999 | 939.067 | 1414.8
303.15 K, x1 = 0.5645 | 953.126 | 1430.7
303.15 K, x1 = 0.6971 | 978.597 | 1463.6
303.15 K, x1 = 0.7909 | 993.514 | 1483.2
303.15 K, x1 = 0.8906 | 1009.25 | 1505.1
303.15 K, x1 = 1 | 1023.33 | 1525.3
308.15 K, x1 = 0.0997 | 810.812 | 1272
308.15 K, x1 = 0.2019 | 849.665 | 1306
308.15 K, x1 = 0.2953 | 880.18 | 1335.8
308.15 K, x1 = 0.4033 | 910.709 | 1367.7
308.15 K, x1 = 0.4999 | 934.271 | 1394.8
308.15 K, x1 = 0.5645 | 948.386 | 1410.4
308.15 K, x1 = 0.6971 | 973.957 | 1443.4
308.15 K, x1 = 0.7909 | 988.935 | 1462.8
308.15 K, x1 = 0.8906 | 1004.73 | 1485.2
308.15 K, x1 = 1 | 1018.87 | 1506
313.15 K, x1 = 0.0997 | 805.495 | 1252.2
313.15 K, x1 = 0.2019 | 844.503 | 1286.4
313.15 K, x1 = 0.2953 | 875.146 | 1316.3
313.15 K, x1 = 0.4033 | 905.801 | 1347.6
313.15 K, x1 = 0.4999 | 929.461 | 1374.7
313.15 K, x1 = 0.5645 | 943.637 | 1390.2
313.15 K, x1 = 0.6971 | 969.311 | 1423.3
313.15 K, x1 = 0.7909 | 984.35 | 1442.6
313.15 K, x1 = 0.8906 | 1000.21 | 1465.5
313.15 K, x1 = 1 | 1014.41 | 1486.8
318.15 K, x1 = 0.0997 | 800.149 | 1232.4
318.15 K, x1 = 0.2019 | 839.318 | 1266.8
318.15 K, x1 = 0.2953 | 870.091 | 1296.9
318.15 K, x1 = 0.4999 | 924.64 | 1354.8
318.15 K, x1 = 0.7909 | 979.759 | 1422.4
318.15 K, x1 = 0.8906 | 995.681 | 1445.9
318.15 K, x1 = 1 | 1009.95 | 1467.8
318.16 K, x1 = 0.4033 | 900.875 | 1327.4
318.16 K, x1 = 0.5645 | 938.874 | 1370.2
318.16 K, x1 = 0.6971 | 964.657 | 1403.3
323.15 K, x1 = 0.4033 | 895.938 | 1307.5
323.16 K, x1 = 0.0997 | 794.775 | 1212.6
323.16 K, x1 = 0.2019 | 834.109 | 1247.3
323.16 K, x1 = 0.2953 | 865.017 | 1277.6
323.16 K, x1 = 0.4999 | 919.805 | 1335
323.16 K, x1 = 0.5645 | 934.1 | 1350.3
323.16 K, x1 = 0.6971 | 959.996 | 1383.4
323.16 K, x1 = 0.7909 | 975.164 | 1402.4
323.16 K, x1 = 0.8906 | 991.156 | 1426.5
323.16 K, x1 = 1 | 1005.48 | 1448.9

ClC(Cl)Cl [trichloromethane] + CN1CCCC1=O
Details | mass density [kg/m3] | speed of sound [m/s]
293.14 K, x2 = 0.1079 | 1437.79 | 1051.6
293.15 K, x2 = 0 | 1488.55 | 1000.9
293.15 K, x2 = 0.1061 | 1438.96 | 1050
293.15 K, x2 = 0.2054 | 1390.74 | 1098.6
293.15 K, x2 = 0.2994 | 1345.24 | 1146
293.15 K, x2 = 0.4032 | 1294.06 | 1198.4
293.15 K, x2 = 0.4961 | 1249.81 | 1248.4
293.15 K, x2 = 0.6006 | 1201.33 | 1307.8
293.15 K, x2 = 0.6854 | 1163.12 | 1359.8
293.15 K, x2 = 0.7986 | 1114.37 | 1430.8
298.14 K, x2 = 0.1079 | 1429.34 | 1034.9
298.14 K, x2 = 0.2994 | 1338.24 | 1130.2
298.14 K, x2 = 0.7986 | 1109.43 | 1413
298.15 K, x2 = 0 | 1479.07 | 984.33
298.15 K, x2 = 0.2054 | 1383.07 | 1082.1
298.15 K, x2 = 0.4032 | 1287.66 | 1181.9
298.15 K, x2 = 0.4961 | 1243.85 | 1231.9
298.15 K, x2 = 0.6006 | 1195.78 | 1290.7
298.15 K, x2 = 0.6854 | 1157.85 | 1342.1
298.16 K, x2 = 0.1061 | 1430.5 | 1033.6
303.14 K, x2 = 0.1079 | 1420.85 | 1018.3
303.14 K, x2 = 0.2994 | 1331.2 | 1114.1
303.14 K, x2 = 0.7986 | 1104.48 | 1395.1
303.15 K, x2 = 0.1061 | 1422 | 1016.3
303.15 K, x2 = 0.2054 | 1375.36 | 1065.2
303.15 K, x2 = 0.4032 | 1281.24 | 1165.2
303.15 K, x2 = 0.4961 | 1237.89 | 1215.2
303.15 K, x2 = 0.6006 | 1190.22 | 1273.5
303.15 K, x2 = 0.6854 | 1152.57 | 1324.2
303.16 K, x2 = 0 | 1469.52 | 967.53
308.14 K, x2 = 0.1079 | 1412.32 | 1001.8
308.14 K, x2 = 0.2994 | 1324.14 | 1098.1
308.14 K, x2 = 0.7986 | 1099.52 | 1377.3
308.15 K, x2 = 0 | 1459.91 | 950.62
308.15 K, x2 = 0.1061 | 1413.45 | 999.25
308.15 K, x2 = 0.2054 | 1367.63 | 1048.3
308.15 K, x2 = 0.4032 | 1274.79 | 1148.5
308.15 K, x2 = 0.4961 | 1231.6 | 1198.6
308.15 K, x2 = 0.6006 | 1184.64 | 1256.3
308.15 K, x2 = 0.6854 | 1147.28 | 1306.2
